Reference: patent US20220257774A1, “AROMATIC AMINE AR AHD BET TARGETING PROTEIN DEGRADATION CHIMERA COMPOUND AND USE” (HINOVA PHARMACEUTICALS INC., priority 2019, published 2022)
Read-outs that look alike come from different tables or passages of the source.

System: LNCaP/AR cells
Assay: Inhibition of the proliferation of LNCap/AR cells (CCK-8)
Assay type: cell-based
Settings: LNCaP/AR cells, 6 days culture, CCK-8, read-out: LNCap/AR IC50
Outline: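 LNCaP/AR cells (1000/well, RPMI1640 + 10% FBS) were treated for 6 days at 37 °C with 9-point 3-fold dilutions from 10 μM final, 0.1% DMSO, in duplicate. Viability was read by CCK-8 absorbance at 450 nm after 1 h, and IC50 came from a dose-response-inhibition fit.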

| Structure (SMILES) | IC50 (144 h) [nM] | IC50 [nM] |
| --- | --- | --- |
| Cc1ccc(-c2c(C)noc2C)cc1N(CCCCCCCCOCC(=O)N[C@H](C(=O)N1C[C@H](O)C[C@H]1C(=O)N[C@@H](C)c1ccc(-c2scnc2C)cc1)C(C)(C)C)c1ccc(-n2ccnc2)cc1 [Compound 87, (2S,4R)-1-((S)-2-(2-((8-((4-(1H-imidazol-1-yl)phenyl)(5-(3,5-methylisoxazol-4-yl)-2-methylphenyl)amino)cetyl)oxy)acetylamino)-3,3-dimethylbutyryl)-4-hydroxy-N—((S)-1-(4-(4-methylthiazol-5-yl)phenyl)ethyl)pyrrolidinyl-2-formamide] | 501 to 2000 | – |
| CCCCCCCCC(CCCCCCCOCC(=O)N[C@H](C(=O)N1C[C@H](OC(C)=O)C[C@H]1C(=O)N[C@@H](C)c1ccc(-c2scnc2C)cc1)C(C)(C)C)N(c1ccc(-n2ccnc2)cc1)c1cc(-c2c(C)noc2C)ccc1C (stereo partly drawn) [Compound 88, (3R,5S)-1-((S)-2-(2-((8-((4-(1H-imidazol-1-yl)phenyl)(5-(3,5-dimethylisoxazol-4-yl)-2-methylphenyl)amino)cetyl)oxy)acetylamino)-3,3-dimethylbutyryl)-5-(((S)-1-(4-(4-methylthiazol-5-yl)phenyl)ethyl)carbamoyl)pyrrolidine-3-yl acetate] | 501 to 2000 | – |
| CC(=O)O[C@@H]1C[C@@H](C(=O)N[C@@H](C)c2ccc(-c3scnc3C)cc2)N(C(=O)[C@@H](NC(=O)COCCCCCN(c2ccc(-n3cnc(C)c3)cc2)c2cc(-c3c(C)noc3C)ccc2C)C(C)(C)C)C1 [Compound 96, (3R,5S)-1-((S)-2-(2-((5-((5-(3,5-dimethylisoxazol-4-yl)-2-methylphenyl)(4-(4-methyl-1H-imidazol-1-yl)phenyl)amino)pentyl)oxy)acetylamino)-3,3-dimethylbutyryl)-5-(((S)-1-(4-(4-methylthiazol-5-yl)phenyl)ethyl)aminoformyl)pyrrolidinyl-3-yl acetate] | – | < 100 |
| Cc1ccc(-c2c(C)noc2C)cc1N(CCCCCOCC(=O)N[C@H](C(=O)N1C[C@H](O)C[C@H]1C(=O)N[C@@H](C)c1ccc(-c2scnc2C)cc1)C(C)(C)C)c1ccc(-n2ccnc2C)cc1 [Compound 97, (2S,4R)-1-((S)-2-(2-((5-((5-(3,5-dimethylisoxazol-4-yl)-2-methylphenyl)(4-(2-methyl-1H-imidazol-1-yl)phenyl)amino)pentyl)oxy)acetylamino)-3,3-dimethylbutyryl)-4-hydroxy-N—((S)-1-(4-(4-methylthiazol-5-yl)phenyl)ethyl)-pyrrolidinyl-2-formamide] | 101 to 500 | – |
| CC(=O)O[C@@H]1C[C@@H](C(=O)N[C@@H](C)c2ccc(-c3scnc3C)cc2)N(C(=O)[C@@H](NC(=O)COCCCCCN(c2ccc(-n3ccnc3C)cc2)c2cc(-c3c(C)noc3C)ccc2C)C(C)(C)C)C1 [Compound 98, (3R,5S)-1-((S)-2-(2-((5-((5-(3,5-dimethylisoxazol-4-yl)-2-methylphenyl)(4-(2-methyl-1H-imidazol-1-yl)phenyl)amino)pentyl)oxy)acetylamino)-3,3-dimethylbutyryl)-5-(((S)-1-(4-(4-methylthiazol-5-yl)phenyl)ethyl)aminoformyl)pyrrolidinyl-3-yl acetate] | 101 to 500 | – |

Continued, values first:

| IC50 (144 h) [nM] | IC50 [nM] | Structure (SMILES) |
| --- | --- | --- |
| < 100 | – | Cc1ccc(-c2c(C)noc2C)cc1N(CCCCCOCC(=O)N[C@H](C(=O)N1C[C@H](O)C[C@H]1C(=O)N[C@@H](C)c1ccc(-c2scnc2C)cc1)C(C)(C)C)c1ccc(-n2ccnn2)cc1 [Compound 89, (2S,4R)-1-((S)-2-(2-((5-((4-(1H-1,2,3-triazol-1-yl)phenyl)(5-(3,5-dimethylisoxazol-4-yl)-2-methylphenyl)amino)pentyl)oxy)acetylamino)-3,3-dimethylbutyryl)-4-hydroxy-N—((S)-1-(4-(4-methylthiazol-5-yl)phenyl)ethyl)-pyrrolidinyl-2-formamide] |
| 101 to 500 | – | CC(=O)O[C@@H]1C[C@@H](C(=O)N[C@@H](C)c2ccc(-c3scnc3C)cc2)N(C(=O)[C@@H](NC(=O)COCCCCCN(c2ccc(-n3ccnn3)cc2)c2cc(-c3c(C)noc3C)ccc2C)C(C)(C)C)C1 [Compound 90, (3R,5S)-1-((S)-2-(2-((5-((4-(1H-1,2,3-triazol-1-yl)phenyl)(5-(3,5-dimethylisoxazol-4-yl)-2-methylphenyl)amino)pentyl)oxy)acetylamino)-3,3-dimethylbutyryl)-5-(((S)-1-(4-(4-methylthiazol-5-yl)phenyl)ethyl)aminoformyl)pyrrolidinyl-3-yl acetate] |
| 101 to 500 | – | Cc1ccc(-c2c(C)noc2C)cc1N(CCCCCOCC(=O)N[C@H](C(=O)N1C[C@H](O)C[C@H]1C(=O)N[C@@H](C)c1ccc(-c2scnc2C)cc1)C(C)(C)C)c1ccc(-n2cncn2)cc1 [Compound 91, (2S,4R)-1-((S)-2-(2-((5-((4-(1H-1,2,4-triazol-1-yl)phenyl)(5-(3,5-dimethylisoxazol-4-yl)-2-methylphenyl)amino)pentyl)oxy)acetylamino)-3,3-dimethylbutyryl)-4-hydroxy-N—((S)-1-(4-(4-methylthiazol-5-yl)phenyl)ethyl)-pyrrolidinyl-2-formamide] |
| 101 to 500 | – | CC(=O)O[C@@H]1C[C@@H](C(=O)N[C@@H](C)c2ccc(-c3scnc3C)cc2)N(C(=O)[C@@H](NC(=O)COCCCCCN(c2ccc(-n3cncn3)cc2)c2cc(-c3c(C)noc3C)ccc2C)C(C)(C)C)C1 [Compound 92, (3R,5S)-1-((S)-2-(2-((5-((4-(1H-1,2,4-triazol-1-yl)phenyl)(5-(3,5-dimethylisoxazol-4-yl)-2-methylphenyl)amino)pentyl)oxy)acetylamino)-3,3-dimethylbutyryl)-5-(((S)-1-(4-(4-methylthiazol-5-yl)phenyl)ethyl)aminoformyl)pyrrolidinyl-3-yl acetate] |
| 101 to 500 | – | Cc1ccc(-c2c(C)noc2C)cc1N(CCCCCOCC(=O)N[C@H](C(=O)N1C[C@H](O)C[C@H]1C(=O)N[C@@H](C)c1ccc(-c2scnc2C)cc1)C(C)(C)C)c1ccc(-n2cnnc2)cc1 [Compound 93, (2S,4R)-1-((S)-2-(2-((5-((4-(1H-1,3,4-triazol-1-yl)phenyl)(5-(3,5-dimethylisoxazol-4-yl)-2-methylphenyl)amino)pentyl)oxy)acetylamino)-3,3-dimethylbutyryl)-4-hydroxy-N—((S)-1-(4-(4-methylthiazol-5-yl)phenyl)ethyl)-pyrrolidinyl-2-formamide] |
| 101 to 500 | – | CC(=O)O[C@@H]1C[C@@H](C(=O)N[C@@H](C)c2ccc(-c3scnc3C)cc2)N(C(=O)[C@@H](NC(=O)COCCCCCN(c2ccc(-n3cnnc3)cc2)c2cc(-c3c(C)noc3C)ccc2C)C(C)(C)C)C1 [Compound 94] |
| 101 to 500 | – | Cc1cn(-c2ccc(N(CCCCCOCC(=O)N[C@H](C(=O)N3C[C@H](O)C[C@H]3C(=O)N[C@@H](C)c3ccc(-c4scnc4C)cc3)C(C)(C)C)c3cc(-c4c(C)noc4C)ccc3C)cc2)cn1 [Compound 95, (2S,4R)-1-((S)-2-(2-((5-((5-(3,5-dimethylisoxazol-4-yl)-2-methylphenyl)(4-(4-methyl-1H-imidazol-1-yl)phenyl)amino)pentyl)oxy)acetylamino)-3,3-dimethylbutyryl)-4-hydroxy-N—((S)-1-(4-(4-methylthiazol-5-yl)phenyl)ethyl)-pyrrolidinyl-2-formamide] |
